Patent publication US20110220154A1, “Dental Appliance Cleanser” (priority 2008, published 2011)

Tested on: Candida albicans
Assay: in vitro suspension test representing in-use conditions
Assay type: cell-based
Conditions: 5 min
Protocol: The synergistic activity of the cleanser formulation was assessed using an in vitro suspension test representing in-use conditions. In-use conditions represent the actual consumer use of the cleanser (e.g., dissolved tablet concentrations, temperature, and contact time) versus Candida albicans as a relevant oral organism for the denture wearer. To 150 mL of 40° C. water at time zero, the denture cleanser was added, followed by 2 mL of a 10^8 cfu/mL test suspension. After 5 minutes, an aliquot of the solution was removed, neutralized and plated in order to evaluate the amount or log reduction of the test organism.

Compound: [H]/N=C(\N/C(=N/[H])NCCCCCCNC(=N)NC(=N)Nc1ccc(Cl)cc1)Nc1ccc(Cl)cc1 [Test Formulation 4, 1,6-di-4′-chlorophenyldiguanidohexane]
- antimicrobial activity: does not demonstrate any antimicrobial activity
